This passage reports EC50 results from BindingDB's records for PubMed 38436272 (Sorbonne University, 2024).

For this assay, the target named is Forkhead box protein O3 (Homo sapiens, UniProt O43524). The assay can be described thus: Induction of nuclear translocation of FOXO3 in human U2OS cells by inverted microscopic analysis.
Chain of Forkhead box protein O3 (O43524 whole entry): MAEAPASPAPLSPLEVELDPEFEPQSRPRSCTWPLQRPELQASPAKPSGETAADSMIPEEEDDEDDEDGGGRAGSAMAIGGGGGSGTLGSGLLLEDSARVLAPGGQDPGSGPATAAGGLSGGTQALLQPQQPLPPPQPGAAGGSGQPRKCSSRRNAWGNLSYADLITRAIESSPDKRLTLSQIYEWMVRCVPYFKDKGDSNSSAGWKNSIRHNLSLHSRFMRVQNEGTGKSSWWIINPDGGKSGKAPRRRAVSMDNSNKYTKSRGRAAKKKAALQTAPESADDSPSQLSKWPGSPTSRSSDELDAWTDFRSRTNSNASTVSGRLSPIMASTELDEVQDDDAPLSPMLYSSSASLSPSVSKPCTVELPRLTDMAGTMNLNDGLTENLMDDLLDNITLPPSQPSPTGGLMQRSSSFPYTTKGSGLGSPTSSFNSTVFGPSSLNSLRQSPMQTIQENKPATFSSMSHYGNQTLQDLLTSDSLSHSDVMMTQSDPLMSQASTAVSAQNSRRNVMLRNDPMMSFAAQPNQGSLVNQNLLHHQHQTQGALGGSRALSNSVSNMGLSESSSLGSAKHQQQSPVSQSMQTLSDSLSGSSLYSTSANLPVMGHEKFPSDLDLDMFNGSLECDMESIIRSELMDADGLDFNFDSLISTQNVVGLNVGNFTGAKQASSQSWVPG

In turn, `COc1cc(/C=C/C(=O)N2CCC=CC2=O)cc(OC)c1OC` [CHEBI:8241] came in with an EC50 of 37.7 µM. That is a double-digit micromolar value.

In general, EC50 refers to the concentration that produces a half-maximal response. Low readings indicate a more potent agent, high ones a less potent agent.
